Data taken from patent US4051237A, “Glycopeptide antibiotics Bu-2231 A and B and process for producing same” (priority 1975, dated 1977).
In brackets after ≈: the same amount, converted by molar mass.

Columns and labels:
Type in all cases: cell-based
Mycobacterium 607, D47 = assay: MIC by two-fold agar dilution; details: Medium #1001, unit assumed
B. sphaericus #122 = assay: MIC by two-fold agar dilution; details: Mueller-Hinton agar, unit assumed
M. flavus D12 = assay: MIC by two-fold agar dilution; details: Mueller-Hinton agar, unit assumed
P. rettgeri A15167 = assay: MIC by two-fold agar dilution; details: Mueller-Hinton agar, unit assumed
B. cereus ATCC 10702A = assay: MIC by two-fold agar dilution; details: Mueller-Hinton agar, unit assumed
P. stuartii A20734 = assay: MIC by two-fold agar dilution; details: Mueller-Hinton agar, unit assumed
S. aureus 209P = assay: MIC by two-fold agar dilution; details: Mueller-Hinton agar, unit assumed
C. krusei IAM 4489 = assay: MIC by two-fold agar dilution; details: Ck-1 C. krusei IAM 4489; sabouraud agar; unit assumed
S. lutea PCI-1001 = assay: MIC by two-fold agar dilution; details: Mueller-Hinton agar, unit assumed
Mucor sp. = assay: MIC by two-fold agar dilution; details: My-1 Mucor sp.; sabouraud agar; unit assumed
Hormodendrum sp. = assay: MIC by two-fold agar dilution; details: Hy-1 Hormodendrum sp.; sabouraud agar; unit assumed
P morganii A9553 = assay: MIC by two-fold agar dilution; details: Mueller-Hinton agar, unit assumed
P. aeruginosa H9, D113 = assay: MIC by two-fold agar dilution; details: Mueller-Hinton agar, unit assumed
T. mentagrophytes D-155 = assay: MIC by two-fold agar dilution; details: Tm-1 T. mentagrophytes D-155; sabouraud agar; unit assumed
P. stuartii A20894 = assay: MIC by two-fold agar dilution; details: Mueller-Hinton agar, unit assumed
S. cerevisiae ATCC 9763 = assay: MIC by two-fold agar dilution; details: Sc-1 S. cerevisiae ATCC 9763; sabouraud agar; unit assumed
S. aureus A20239 = assay: MIC by two-fold agar dilution; details: Mueller-Hinton agar, unit assumed
B. anthracis 115 = details: Mueller-Hinton agar, unit assumed
[1] = system: C. albicans #520 Yale A9540; assay: MIC by two-fold agar dilution; details: Ca-4 C. albicans #520 Yale A9540; sabouraud agar; unit assumed
C. albicans IAM 4888 = assay: MIC by two-fold agar dilution; details: Ca-1 C. albicans IAM 4888; sabouraud agar; unit assumed
S. marcescens A20333 = assay: MIC by two-fold agar dilution; details: Mueller-Hinton agar, unit assumed
E. coli Juhl A15119 = assay: MIC by two-fold agar dilution; details: Mueller-Hinton agar, unit assumed
T. rubrum D-55 = assay: MIC by two-fold agar dilution; details: Tr-1 T. rubrum D-55; sabouraud agar; unit assumed
K. pneumoniae A9678 = assay: MIC by two-fold agar dilution; details: Mueller-Hinton agar, unit assumed
B. subtilis PCI-219 = assay: MIC by two-fold agar dilution; details: Mueller-Hinton agar, unit assumed
P. aeruginosa A20741 = assay: MIC by two-fold agar dilution; details: Mueller-Hinton agar, unit assumed
P. aeruginosa A9930 = assay: MIC by two-fold agar dilution; details: Mueller-Hinton agar, unit assumed
C. krusei #96 A15052 = assay: MIC by two-fold agar dilution; details: Ck-2 C. krusei #96 A15052; sabouraud agar; unit assumed
P. vulgaris A9436 = assay: MIC by two-fold agar dilution; details: Mueller-Hinton agar, unit assumed
S. aureus 209P, R4 = assay: MIC by two-fold agar dilution; details: Mueller-Hinton agar, unit assumed
Method: The minimum inhibitory concentrations (MIC) of Bu-2231 A and B were determined against a wide variety of bacteria and fungi by the two-fold agar dilution method. Mueller-Hinton agar medium was used for the determination of bacterial MIC's (gram-positive and gram-negative), Medium #1001 [Glycerol (3%). Na-glutamate (0.3%), peptone (0.2%), Na2 HPO4 (0.31%), KH2 PO4 (0.1%), ammonium citrate (0.005%), MgSO4.7H2 O (0.001%), agar (1.5%)] for acid-fast bacteria and sabouraud agar for fungi. The results are shown in Tables 9 and 10 comparatively with bleomycin and phleomycin. The antibacterial and antifungal activities of Bu-2231 A and B are much higher than those of the reference antibiotics.

C. neoformans IAM 4514 = assay: MIC by two-fold agar dilution; details: Cn-2 C. neoformans IAM 4514; sabouraud agar; unit assumed
C. tropicalis IAM 4157 = assay: MIC by two-fold agar dilution; details: Ct-1 C. tropicalis IAM 4157; sabouraud agar; unit assumed
B. mycoides "0" = details: Mueller-Hinton agar, unit assumed
E. cloacae A21006 = assay: MIC by two-fold agar dilution; details: Mueller-Hinton agar, unit assumed
Mycobacterium 607, D46 = assay: MIC by two-fold agar dilution; details: Medium #1001, unit assumed
K. pneumoniae A20680 = assay: MIC by two-fold agar dilution; details: Mueller-Hinton agar, unit assumed
E. coli A20683 = assay: MIC by two-fold agar dilution; details: Mueller-Hinton agar, unit assumed
E. coli K-12 A9632 = assay: MIC by two-fold agar dilution; details: Mueller-Hinton agar, unit assumed
C. neoformans (Cn-1) = assay: MIC by two-fold agar dilution; details: Cn-1 C. neoformans; sabouraud agar; unit assumed
P. citrinum IAM 7008 = assay: MIC by two-fold agar dilution; details: Pt-1 P. citrinum IAM 7008; sabouraud agar; unit assumed
S. marcescens A21235 = assay: MIC by two-fold agar dilution; details: Mueller-Hinton agar, unit assumed
S. aureus #193 = assay: MIC by two-fold agar dilution; details: Mueller-Hinton agar, unit assumed

`Cc1c(N)nc([C@H](CC(N)=O)NC[C@@H](N)C(N)=O)nc1C(=O)N[C@H](C(=O)N[C@H](C)[C@@H](O)CC(=O)N[C@@H](C(=O)NC(O[C@@H]1O[C@@H](C)[C@@H](N)[C@@H](O)[C@H]1O)C(O)c1nc(-c2nc(C(=O)NCCCNCCCCN)cs2)cs1)[C@@H](C)O)C(O[C@@H]1O[C@@H](CO)[C@H](O)[C@@H](O)[C@@H]1O[C@H]1O[C@H](CO)[C@@H](O)[C@@H](OC(N)=O)[C@@H]1O)c1cnc[nH]1` (some centres unmarked) [Bu-2231 B Cu-free] showed an MIC (Mycobacterium 607, D47) of 0.05 µg/mL (≈ 0.0312 µM), an MIC (B. sphaericus #122) of 0.2 µg/mL (≈ 0.125 µM) and an MIC (M. flavus D12) of 0.4 µg/mL (≈ 0.249 µM). The MIC (P. rettgeri A15167) was 0.8 µg/mL (≈ 0.499 µM), the MIC (B. cereus ATCC 10702A) was 0.2 µg/mL (≈ 0.125 µM) and the MIC (P. stuartii A20734) was 0.8 µg/mL (≈ 0.499 µM). The MIC (S. aureus 209P) was 0.4 µg/mL (≈ 0.249 µM), the MIC (C. krusei IAM 4489) was 0.4 µg/mL (≈ 0.249 µM) and the MIC (S. lutea PCI-1001) was 0.4 µg/mL (≈ 0.249 µM). It also gave an MIC (Mucor sp.) of 3.1 µg/mL (≈ 1.93 µM), an MIC (Hormodendrum sp.) of 0.2 µg/mL (≈ 0.125 µM) and an MIC (P morganii A9553) of 1.6 µg/mL (≈ 0.998 µM). For the same compound, the MIC (P. aeruginosa H9, D113) was greater than 100 µg/mL, the MIC (T. mentagrophytes D-155) was 6.3 µg/mL (≈ 3.93 µM) and the MIC (P. stuartii A20894) was 0.4 µg/mL (≈ 0.249 µM). The MIC (S. cerevisiae ATCC 9763) was 0.2 µg/mL (≈ 0.125 µM), the MIC (S. aureus A20239) was 0.8 µg/mL (≈ 0.499 µM) and the MIC (B. anthracis 115) was 0.1 µg/mL (≈ 0.0624 µM). The MIC [1] was 1.6 µg/mL (≈ 0.998 µM), the MIC (C. albicans IAM 4888) was 0.8 µg/mL (≈ 0.499 µM) and the MIC (S. marcescens A20333) was 0.8 µg/mL (≈ 0.499 µM). The MIC (E. coli Juhl A15119) was 0.2 µg/mL (≈ 0.125 µM), the MIC (T. rubrum D-55) was 0.8 µg/mL (≈ 0.499 µM) and the MIC (K. pneumoniae A9678) was 0.4 µg/mL (≈ 0.249 µM). The MIC (B. subtilis PCI-219) was less than 0.0063 µg/mL, the MIC (P. aeruginosa A20741) was 0.2 µg/mL (≈ 0.125 µM) and the MIC (P. aeruginosa A9930) was 0.8 µg/mL (≈ 0.499 µM). The MIC (C. krusei #96 A15052) was 0.4 µg/mL (≈ 0.249 µM), the MIC (P. vulgaris A9436) was 0.2 µg/mL (≈ 0.125 µM) and the MIC (S. aureus 209P, R4) was 0.8 µg/mL (≈ 0.499 µM). The MIC (C. neoformans IAM 4514) was 0.2 µg/mL (≈ 0.125 µM), the MIC (C. tropicalis IAM 4157) was 0.8 µg/mL (≈ 0.499 µM) and the MIC (B. mycoides "0") was 0.2 µg/mL (≈ 0.125 µM). For the same compound, the MIC (E. cloacae A21006) was 6.3 µg/mL (≈ 3.93 µM), the MIC (Mycobacterium 607, D46) was 0.1 µg/mL (≈ 0.0624 µM) and the MIC (K. pneumoniae A20680) was 25 µg/mL (≈ 15.6 µM). For the same compound, the MIC (E. coli A20683) was 12.5 µg/mL (≈ 7.79 µM), the MIC (E. coli K-12 A9632) was 0.1 µg/mL (≈ 0.0624 µM) and the MIC (C. neoformans (Cn-1)) was 0.2 µg/mL (≈ 0.125 µM). The MIC (P. citrinum IAM 7008) was 1.6 µg/mL (≈ 0.998 µM), the MIC (S. marcescens A21235) was 1.6 µg/mL (≈ 0.998 µM) and the MIC (S. aureus #193) was 0.4 µg/mL (≈ 0.249 µM).
With Bleomycin [reference compound] the MIC (Mycobacterium 607, D47) was 0.4 µg/mL, the MIC (B. sphaericus #122) was 6.3 µg/mL and the MIC (M. flavus D12) was 50 µg/mL. It also gave an MIC (P. rettgeri A15167) greater than 100 µg/mL, an MIC (B. cereus ATCC 10702A) of 1.6 µg/mL and an MIC (P. stuartii A20734) greater than 100 µg/mL. The MIC (S. aureus 209P) was 6.3 µg/mL, the MIC (C. krusei IAM 4489) was 12.5 µg/mL and the MIC (S. lutea PCI-1001) was 100 µg/mL. The MIC (Mucor sp.) was 3.1 µg/mL, the MIC (Hormodendrum sp.) was 0.8 µg/mL and the MIC (P morganii A9553) was greater than 100 µg/mL. The MIC (P. aeruginosa H9, D113) was greater than 100 µg/mL, the MIC (T. mentagrophytes D-155) was greater than 100 µg/mL and the MIC (P. stuartii A20894) was 3.1 µg/mL. The MIC (S. cerevisiae ATCC 9763) was 0.8 µg/mL, the MIC (S. aureus A20239) was 12.5 µg/mL and the MIC (B. anthracis 115) was 12.5 µg/mL. For the same compound, the MIC [1] was greater than 100 µg/mL, the MIC (C. albicans IAM 4888) was 12.5 µg/mL and the MIC (S. marcescens A20333) was greater than 100 µg/mL. The MIC (E. coli Juhl A15119) was 1.6 µg/mL, the MIC (T. rubrum D-55) was greater than 100 µg/mL and the MIC (K. pneumoniae A9678) was 6.3 µg/mL. The MIC (B. subtilis PCI-219) was less than 0.0063 µg/mL, the MIC (P. aeruginosa A20741) was 12.5 µg/mL and the MIC (P. aeruginosa A9930) was greater than 100 µg/mL. For the same compound, the MIC (C. krusei #96 A15052) was 3.1 µg/mL, the MIC (P. vulgaris A9436) was 6.3 µg/mL and the MIC (C. neoformans IAM 4514) was 1.6 µg/mL. It also gave an MIC (C. tropicalis IAM 4157) of 12.5 µg/mL, an MIC (B. mycoides "0") of 12.5 µg/mL and an MIC (E. cloacae A21006) greater than 100 µg/mL. For the same compound, the MIC (Mycobacterium 607, D46) was 0.2 µg/mL, the MIC (K. pneumoniae A20680) was greater than 100 µg/mL and the MIC (E. coli A20683) was greater than 100 µg/mL. It also gave an MIC (E. coli K-12 A9632) of 0.8 µg/mL, an MIC (C. neoformans (Cn-1)) of 1.6 µg/mL and an MIC (P. citrinum IAM 7008) greater than 100 µg/mL. It also gave an MIC (S. marcescens A21235) of 100 µg/mL and an MIC (S. aureus #193) of 12.5 µg/mL.
